Among the data in US9765091B2, “Tetrahydropyrazolo [3,4-b] azepine derivatives and their use as allosteric modulators of metabotropic glutamate receptors” (Addex Pharma S.A., priority 2010, dated 2017) are EC50 and melting point values, retold here.

Bounds are passed on as bounds.

The target in one data set is T1, human mGluR4 (Homo sapiens, UniProt Q14833).
T1 construct: expressed in transfected cells
Briefly: Fluorescent cell based Ca2+ mobilization assay (FLIPR) on HEK-293 cells expressing human mGluR4. To be noted: positive allosteric modulation, HEK-293 cells expressing hmGluR4, stimulated by EC25 glutamate; mean of at least three independent experiments in duplicate; read-out: Ca^2+ Flux* (mean EC50). The source says: mGluR4 Assay on HEK-Expressing Human mGluR4
The compounds of the present invention are positive allosteric modulators of mGluR4 receptor. Their activity was examined on recombinant human mGluR4a receptors by detecting changes in intracellular Ca^2+ concentration, using the fluorescent Ca^2+-sensitive dye Fluo4-(AM) and a Fluorometric Imaging Plate Reader (FLIPR, Molecular Devices, Sunnyvale, Calif.).
The cDNA encoding the human metabotropic glutamate receptor (hmGluR4), (accession number NM_000841.1, NCBI Nucleotide database browser), was subcloned into an expression vector containing also the hygromycin resistance gene. In parallel, the cDNA encoding a G protein allowing redirection of the activation signal to intracellular calcium flux was subcloned into a different expression vector containing also the puromycin resistance gene. Transfection of both these vectors into HEK293 cells with PolyFect reagent (Qiagen) according to supplier's protocol, and hygromycin and puromycin treatment allowed selection of antibiotic resistant cells which had integrated stably one or more copies of the plasmids. Positive cellular clones expressing hmGluR4 were identified in a functional assay measuring changes in calcium fluxes in response to glutamate or selective known mGluR4 orthosteric agonists and antagonists. HEK-293 cells expressing hmGluR4 were maintained in media containing DMEM, dialyzed Fetal Calf Serum (10%), Glutamax™ (2 mM), Penicillin (100 units/mL), Streptomycin (100 μg/mL), Geneticin (100 μg/mL) and Hygromycin-B (40 μg/mL) and puromycin (1 μg/mL) at 37° C./5% CO2.
Human mGluR4 HEK-293 cells were plated out 24 hours prior to FLIPR^384 assay in black-walled, clear-bottomed, poly-L-ornithine-coated 384-well plates at a density of 25,000 cells/well in a glutamine/glutamate free DMEM medium containing foetal bovine serum (10%), penicillin (100 units/mL) and streptomycin (100 μg/mL) at 37° C./5% CO2.
On the day of the assay, the medium was aspirated and the cells were loaded with a 3 μM solution of Fluo4-AM (LuBioScience, Lucerne, Switzerland) in 0.03% pluronic acid. After 1 hour at 37° C./5% CO2, the non incorporated dye was removed by washing cell plate with the assay buffer and the cells were left in the dark at room temperature for […] before testing. All assays were performed in a pH 7.4 buffered-solution containing 20 mM HEPES, 143 mM NaCl, 6 mM KCl, 1 mM MgSO4, 1 mM CaCl2, 0.125 mM sulfapyrazone and 0.1% glucose.
After 10 s of basal fluorescence recording, various concentrations of the compounds of the invention were added to the cells. Changes in fluorescence levels were first monitored for 180 s in order to detect any agonist activity of the compounds. Then the cells were stimulated by an EC25 glutamate concentration for an additional 110 s in order to measure enhancing activities of the compounds of the invention. EC25 glutamate concentration is the concentration giving 25% of the maximal glutamate response.
The concentration-response curves of representative compounds of the present invention were generated using the Prism GraphPad software (Graph Pad Inc, San Diego, USA). The curves were fitted to a four-parameter logistic equation: (Y=Bottom+(Top−Bottom)/(1+10^((Log EC50−X)*Hill Slope) allowing the determination of EC50 values.
The Table 4 below represents the mean EC50 obtained from at least three independent experiments of selected molecules performed in duplicate.

T1 sequence (Q14833 33-912): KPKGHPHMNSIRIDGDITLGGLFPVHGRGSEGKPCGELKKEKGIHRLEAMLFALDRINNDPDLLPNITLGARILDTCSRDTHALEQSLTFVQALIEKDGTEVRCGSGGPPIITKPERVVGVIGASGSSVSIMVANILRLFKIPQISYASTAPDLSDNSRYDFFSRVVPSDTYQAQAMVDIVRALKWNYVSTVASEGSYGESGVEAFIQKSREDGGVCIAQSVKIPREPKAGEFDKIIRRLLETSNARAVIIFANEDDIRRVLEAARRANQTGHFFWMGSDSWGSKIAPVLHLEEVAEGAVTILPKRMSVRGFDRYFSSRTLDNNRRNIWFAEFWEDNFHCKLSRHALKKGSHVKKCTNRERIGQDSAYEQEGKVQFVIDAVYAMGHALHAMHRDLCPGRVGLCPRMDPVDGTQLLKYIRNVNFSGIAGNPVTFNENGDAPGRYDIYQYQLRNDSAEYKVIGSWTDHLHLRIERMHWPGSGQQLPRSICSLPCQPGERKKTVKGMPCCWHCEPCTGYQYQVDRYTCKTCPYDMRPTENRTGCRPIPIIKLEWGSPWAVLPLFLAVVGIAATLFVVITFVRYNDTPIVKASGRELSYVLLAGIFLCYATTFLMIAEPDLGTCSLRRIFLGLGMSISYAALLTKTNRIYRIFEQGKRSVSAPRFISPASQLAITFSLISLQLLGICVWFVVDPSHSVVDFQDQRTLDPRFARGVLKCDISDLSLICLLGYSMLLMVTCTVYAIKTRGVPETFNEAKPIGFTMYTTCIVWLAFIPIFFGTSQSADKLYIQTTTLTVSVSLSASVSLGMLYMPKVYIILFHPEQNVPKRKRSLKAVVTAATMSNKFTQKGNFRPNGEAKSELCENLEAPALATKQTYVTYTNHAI

On to `Cc1ccnc(Nc2nc3c(s2)CCN(C)c2n[nH]cc2-3)n1` [Compound 1-1, 6-Methyl-N-(4-methylpyrimidin-2-yl)-4,5,6,8-tetrahydropyrazolo[3,4-b]thiazolo[4,5-d]azepin-2-amine], for which the melting point – broadly, the temperature of the solid-liquid transition – worked out at 292 °C. Further, at human mGluR4, the EC50 (usually the concentration needed to bring the measured effect to its halfway point) was less than 100 nM.

The molecule `Cc1ccnc(Nc2nc3c(s2)CCN(C(C)C)c2n[nH]cc2-3)n1` [Compound 1-5, 6-Isopropyl-N-(4-methylpyrimidin-2-yl)-4,5,6,8-tetrahydropyrazolo[3,4-b]thiazolo[4,5-d]azepin-2-amine] gave a melting point of 247 °C. Besides, the EC50 at human mGluR4 was less than 100 nM.

For the molecule `Cc1nc(Nc2nc3c(s2)CCN(C)c2n[nH]cc2-3)ns1` [Compound 1-8, 6-Methyl-N-(5-methyl-1,2,4-thiadiazol-3-yl)-4,5,6,8-tetrahydropyrazolo[3,4-b]thiazolo[4,5-d]azepin-2-amine], the melting point was 291 °C. The 50% effective concentration (EC50) at human mGluR4 was less than 100 nM.

`COCC(C)N1CCc2sc(Nc3nccc(C)n3)nc2-c2c[nH]nc21` (centres unmarked) [Compound 1-11, 6-(1-Methoxypropan-2-yl)-N-(4-methylpyrimidin-2-yl)-4,5,6,8-tetrahydropyrazolo[3,4-b]thiazolo[4,5-d]azepin-2-amine] showed a melting point of 233 °C. For the same molecule, the concentration for a half-maximal effect (EC50) at human mGluR4 is less than 100 nM.

With `COCCN1CCc2sc(Nc3cccc(F)n3)nc2-c2c[nH]nc21` [Compound 1-14, N-(6-Fluoropyridin-2-yl)-6-(2-methoxyethyl)-4,5,6,8-tetrahydropyrazolo[3,4-b]thiazolo[4,5-d]azepin-2-amine], the melting point turned out to be 203 °C. At human mGluR4, the EC50 is less than 100 nM.

In turn, `COCCN1CCc2sc(Nc3ccc(F)cn3)nc2-c2c[nH]nc21` [Compound 1-15, N-(5-Fluoropyridin-2-yl)-6-(2-methoxyethyl)-4,5,6,8-tetrahydropyrazolo[3,4-b]thiazolo[4,5-d]azepin-2-amine] displayed a melting point of 218 °C. Further, the EC50 on human mGluR4 lay within 100 to 1000 nM.

As to `Cc1noc(C)c1CN1CCc2sc(Nc3ncc(F)cn3)nc2-c2c[nH]nc21` [Compound 1-23, 6-((3,5-Dimethylisoxazol-4-yl)methyl)-N-(5-fluoropyrimidin-2-yl)-4,5,6,8-tetrahydropyrazolo[3,4-b]thiazolo[4,5-d]azepin-2-amine], the melting point is 275 °C. On human mGluR4, the EC50 was less than 100 nM.

As to `CC(C)c1nc(CN2CCc3sc(Nc4ncc(F)cn4)nc3-c3c[nH]nc32)co1` [Compound 1-24, N-(5-Fluoropyrimidin-2-yl)-6-((2-isopropyloxazol-4-yl)methyl)-4,5,6,8-tetrahydropyrazolo[3,4-b]thiazolo[4,5-d]azepin-2-amine], the melting point amounted to 271 °C. For the same molecule, the EC50 at human mGluR4 is less than 100 nM.

The molecule `Fc1cnc(Nc2nc3c(s2)CCNc2n[nH]cc2-3)nc1` [Compound 1-25, N-(5-Fluoropyrimidin-2-yl)-4,5,6,8-tetrahydropyrazolo[3,4-b]thiazolo[4,5-d]azepin-2-amine] returned a melting point of 312 °C. At human mGluR4, the EC50 was less than 100 nM.

In turn, `CCN1CCc2sc(Nc3ncc(F)cn3)nc2-c2c[nH]nc21` [Compound 1-34, 6-Ethyl-N-(5-fluoropyrimidin-2-yl)-4,5,6,8-tetrahydropyrazolo[3,4-b]thiazolo[4,5-d]azepin-2-amine] registered a melting point of 306 °C. Also, the EC50 on human mGluR4 is less than 100 nM.

Take `N#Cc1ccc(CN2CCc3sc(Nc4ncc(F)cn4)nc3-c3cn[nH]c32)cc1` [Compound 1-68, 4-((2-(5-Fluoropyrimidin-2-ylamino)-4,5-dihydropyrazolo[3,4-b]thiazolo[4,5-d]azepin-6(7H)-yl)methyl)benzonitrile]: the EC50 at human mGluR4 was less than 100 nM.

Turning to `Fc1cnc(Nc2nc3c(s2)CCN(Cc2ccc(C(F)(F)F)cc2)c2[nH]ncc2-3)nc1` [Compound 1-69, N-(5-Fluoropyrimidin-2-yl)-6-(4-(trifluoromethyl)benzyl)-4,5,6,7-tetrahydropyrazolo[3,4-b]thiazolo[4,5-d]azepin-2-amine], on human mGluR4, the EC50 lay within 100 to 1000 nM.

`Cc1cccc(CN2CCc3sc(Nc4ncc(F)cn4)nc3-c3cn[nH]c32)n1` [Compound 1-70, N-(5-Fluoropyrimidin-2-yl)-6-((6-methylpyridin-2-yl)methyl)-4,5,6,7-tetrahydropyrazolo[3,4-b]thiazolo[4,5-d]azepin-2-amine]: at human mGluR4, the EC50 is 100 to 1000 nM.

As for `Fc1cnc(Nc2nc3c(s2)CCN(CCc2ccccn2)c2[nH]ncc2-3)nc1` [Compound 1-71, N-(5-Fluoropyrimidin-2-yl)-6-(2-(pyridin-2-yl)ethyl)-4,5,6,7-tetrahydropyrazolo[3,4-b]thiazolo[4,5-d]azepin-2-amine], the EC50 at human mGluR4 lay within 1000 to 10000 nM.

With `COc1ccc(CN2CCc3sc(Nc4ncc(F)cn4)nc3-c3cn[nH]c32)nc1` [Compound 1-77, N-(5-Fluoropyrimidin-2-yl)-6-((5-methoxypyridin-2-yl)methyl)-4,5,6,7-tetrahydropyrazolo[3,4-b]thiazolo[4,5-d]azepin-2-amine], on human mGluR4, the EC50 is less than 100 nM.

Take `Fc1cnc(Nc2nc3c(s2)CCN(CC2CCNCC2)c2[nH]ncc2-3)nc1` [Compound 1-78, N-(5-Fluoropyrimidin-2-yl)-6-(piperidin-4-ylmethyl)-4,5,6,7-tetrahydropyrazolo[3,4-b]thiazolo[4,5-d]azepin-2-amine]: the EC50 on human mGluR4 is 1000 to 10000 nM.

For the molecule `Fc1cnc(Nc2nc3c(s2)CCN(Cc2ncc(Cl)s2)c2[nH]ncc2-3)nc1` [Compound 1-79, 6-((5-Chlorothiazol-2-yl)methyl)-N-(5-fluoropyrimidin-2-yl)-4,5,6,7-tetrahydropyrazolo[3,4-b]thiazolo[4,5-d]azepin-2-amine], the EC50 at human mGluR4 is 100 to 1000 nM.

On to `Cn1cnc(CN2CCc3sc(Nc4ncc(F)cn4)nc3-c3cn[nH]c32)c1` [Compound 1-80, N-(5-Fluoropyrimidin-2-yl)-6-((1-methyl-1H-imidazol-4-yl)methyl)-4,5,6,7-tetrahydropyrazolo[3,4-b]thiazolo[4,5-d]azepin-2-amine], for which the EC50 on human mGluR4 is 100 to 1000 nM.

On to `CC(c1ccc(Cl)cn1)N1CCc2sc(Nc3ncc(F)cn3)nc2-c2cn[nH]c21` (centres unmarked) [Compound 1-81, 6-(1-(5-Chloropyridin-2-yl)ethyl)-N-(5-fluoropyrimidin-2-yl)-4,5,6,7-tetrahydropyrazolo[3,4-b]thiazolo[4,5-d]azepin-2-amine], for which the EC50 at human mGluR4 is less than 100 nM.

Take `Fc1cnc(Nc2nc3c(s2)CCN(C2CCC2)c2[nH]ncc2-3)nc1` [Compound 1-82, 6-Cyclobutyl-N-(5-fluoropyrimidin-2-yl)-4,5,6,7-tetrahydropyrazolo[3,4-b]thiazolo[4,5-d]azepin-2-amine]: the EC50 on human mGluR4 is 1000 to 10000 nM.

As to `COCCN1CCc2sc(Nc3cccc(CF)n3)nc2-c2cn[nH]c21` [Compound 1-83, N-(6-(Fluoromethyl)pyridin-2-yl)-6-(2-methoxyethyl)-4,5,6,7-tetrahydropyrazolo[3,4-b]thiazolo[4,5-d]azepin-2-amine], the EC50 at human mGluR4 was 100 to 1000 nM.

As for `COCCN1CC(C)c2sc(Nc3ncc(F)cn3)nc2-c2cn[nH]c21` (centres unmarked) [Compound 1-84, N-(5-Fluoropyrimidin-2-yl)-6-(2-methoxyethyl)-4-methyl-4,5,6,7-tetrahydropyrazolo[3,4-b]thiazolo[4,5-d]azepin-2-amine], the EC50 at human mGluR4 fell in the range of 100 to 1000 nM.
